How the values were obtained:
[1] = Example 3: dose response of 5-sitosten-3-one on serum lipids; format: in vivo, CDF1 male mice; settings: for Free fatty acid / HDL-cholesterol / Phospholipid / Total cholesterol / Triglyceride: 3 weeks, mean (n=6) ± standard error
Text: (§1) 5Sitosten-3-one was synthesized from β-sitosterol (Tokyo Chemical Industry Co., Ltd.) according to the method of Parish (Parish, E. J., et al., Synthetic Communication, 22, pp.2839-2847, 1992), and purified by silica gel column chromatography and recrystallization. The content ratio of 24-ethyl isomer and 24-methyl compounds in the synthesized product was 6.5:3.5. As experimental animals, thirty 4-week old CDF1 male mice were purchased from Charles River Japan Inc. and divided into five experimental groups each composed of six mice. The test compounds were administered as the admixture in feeds, and the following groups were provided: (1) 0.1% addition, (2) 0.3% addition, (3) 0.5% addition, (4) a lipid-free feed without the addition of the test compound, and (5) control group without the addition of the test compound. A purified feed (modified AIN, Oriental Yeast Co.) was used as a basic feed, and supplemented with 10% soybean oil (Wako Pure Chemical Industries Co., Ltd.) to prepare solid feeds with or without the addition of the test compound. The lipid-free feed, per se, was processed to obtain solid feed. The animals were fed for a week with the feed for the control without the addition of test compound for acclimatization, and then the animals were allowed to feed with the respective feed ad libitum.
(§2) Each group of animals was housed in an aluminum cages of 22×33×11(h)cm (6 mice per a cage), and feedings were carried out at a temperature of 24±1° C. and a relative humidity of 55±5%, where light and darkness were controlled change every 12 hours. Measurements of body weights and feed intakes, and observations of general conditions were conducted three times a week. After the feeding for 3 week with the test feeds, the animals were subjected to autopsy and their bloods were collected. As serum lipid analyses, triglyceride, phospholipid, free fatty acid, total cholesterol, and HDL-cholesterol were measured by using a clinical test kit (Wako Pure Chemicals Industries Co., Ltd. ). Significances of the resulting values were examined by the variance analysis for the groups treated with the medicament, or by the t-test for the lipid-free feed group.

[2] = Example 3: general conditions and weight of organs; format: in vivo, CDF1 male mice
Text: as §1, §2

[3] = Example 1: general conditions and autopsical finding; format: in vivo, CDF1 male mice; settings: 0.5% in feed, 2 weeks
Description: (§3) 5-Sitosten-3-one was prepared according to the method of Parish (Parish, E. J., et al., Synthetic Communication, 22, pp.2839-2847, 1992) by using β-sitosterol (Tokyo Chemical Industry Co., Ltd.) as a starting material and used in the experiments. The content ratio of 24-ethyl and 24-methyl compounds in the synthesized product was 6.5:3.5. As experimental animals, six CDF1 male mice (5-week old, Charles River Japan Inc.) were used in each experimental group. The animals were fed in aluminum cages for mice, and allowed to feed and water ad libitum. The animals were fed for 2 weeks under feeding conditions at a temperature of 24±1° C. and a relative humidity of 55±5%, where light and darkness were controlled to change every 12 hours, and each cage and floor mat (white flakes) were exchanged twice a week.
(§4) Modified AIN (Oriental Yeast Co.) was used as basic feed and mixed with 0.5% 5-sitosten-3-one to prepare test feeds. A feed used as a positive control was prepared by adding 0.5% of 4-cholesten-3-one (Japanese Patent Unexamined Publication No. Hei 5-170651/1993) to the basic feed. Non-treated mice as a control were fed solely with the basic feed. The basic feed was composed of 22.8% crude protein, 54.1% carbohydrates, 6.0% lipids, 4.9% fibers, 2.9% ash, and 8.7% water, and its calorie was 1,523 kJ. The feed was stored at 4° C. after preparation, and a fresh feed was supplied every day.
(§5) The animals were weighed at given intervals of time, and the average values and standard errors of the experimental groups were determined. In addition, feed consumptions were measured at given intervals of time and daily averages per mouse were determined. The animals were observed every day. After the end of the feeding, the animals were anesthetized to death with carbon dioxide gas, and bloods were collected from the vena cava to obtain serums. The animals were autopsied, and the brains, lungs, hearts, livers, spleens, kidneys, testis, adrenals and intraperitoneal fat were examined by the naked eye and weighed. As to serum lipid, neutral fats were measured by using a clinical test kit based on the enzyme method (Triglyceride-E Test, Wako Pure Chemicals Industries Co., Ltd.), and total cholesterol and cholestanol were measured by the method of Kasama (T. Kasama, et al., J. Chromatogr., 400, 241, 1987) with modifications, where the amount of benzoyl chloride was increased by 10 times, the reaction time was doubled, and the measurement was performed by using a high performance liquid chromatography system. Significant differences were determined by t-test for body weights and serum lipids on the basis of the non-treated control mice.

[4] = Example 1: body weight, body fat and feed intake of mice fed feed supplemented with 0.5% test compound; format: in vivo, CDF1 male mice
Description: as §3, §4, §5

[5] = Feeding of rats with feed with 0.5% addition for 4 weeks (organ changes); format: in vivo; settings: Fischer F344 rats
Text: The changes observed in the livers, pancreases, kidneys, and lungs in the groups treated with the medicament were commonly observed in the lipid-free feed group, although the degrees were different. In the lipid-free feed group, absolute weight and relative weight of livers increased by 4% and 6%, respectively, and absolute weight and relative weight of kidneys decreased by 12% and 11%, respectively. […] These changes were not observed when Fischer F344 rats were fed with the feed with 0.5% addition for 4 weeks, and therefore, the changes were considered as unique to CDF1 mice.

[6] = Example 1: serum lipids and serum metabolites of mice fed feed supplemented with 0.5% test compound; format: in vivo; settings: for Serum metabolite: metabolite of the test compound detected in serum
Description: as §3, §4, §5

[7] = Example 3: dose response of 5-sitosten-3-one on body weight, feed intake, feed efficiency and intraperitoneal fat; format: in vivo, CDF1 male mice; settings: for Intraperitoneal fat: 3 weeks, mean (n=6) ± standard error; for Body weight gain: total throughout the experimental period
Text: as §1, §2

[8] = ratio relative to the non-treated control group, CDF1 mice

5-sitosten-3-one (24-ethylcholest-5-en-3-one)
Free fatty acid ([1]; 0.1% addition to feed): 1.41 ± 0.04 mEq/dl
HDL-cholesterol ([1]; 0.1% addition to feed): 68.7 ± 13.6 mg/dL
Phospholipid ([1]; 0.1% addition to feed): 237.8 ± 8.9 mg/dL
Total cholesterol ([1]; 0.1% addition to feed): 164.8 ± 4.0 mg/dL
Triglyceride ([1]; 0.1% addition to feed): 145.4 ± 8.5 mg/dL
Change in HDL-cholesterol ([1]; 0.1-0.5% addition groups): no significant change
Free fatty acid ([1]; 0.3% addition to feed): 1.05 ± 0.06 mEq/dl
HDL-cholesterol ([1]; 0.3% addition to feed): 72.5 ± 7.7 mg/dL
Phospholipid ([1]; 0.3% addition to feed): 187.0 ± 12.2 mg/dL
Total cholesterol ([1]; 0.3% addition to feed): 125.5 ± 7.6 mg/dL
Triglyceride ([1]; 0.3% addition to feed): 78.0 ± 0.9 mg/dL
Triglyceride as compared to the control group (decrease down to) ([1]; 0.5% addition group): 26%
Free fatty acid ([1]; 0.5% addition to feed): 0.87 ± 0.05 mEq/dl
HDL-cholesterol ([1]; 0.5% addition to feed): 61.7 ± 4.3 mg/dL
Phospholipid ([1]; 0.5% addition to feed): 172.5 ± 8.6 mg/dL
Total cholesterol ([1]; 0.5% addition to feed): 102.9 ± 6.4 mg/dL
Triglyceride ([1]; 0.5% addition to feed): 66.8 ± 2.3 mg/dL
Liver weight difference ([2]; 0.1% addition group): no significant difference
Absolute weights of pancreas ([2]; 0.1-0.5% addition groups): decreased in proportion to the amount of the medicament
Changes in relative weight of pancreas ([2]; 0.1-0.5% addition groups): not significant
Decrease of absolute weight of kidney ([2]; 0.3% addition group): 17%
Decrease of relative weight of kidney ([2]; 0.3% addition group): 10%
Increase of relative weight of livers ([2]; 0.3% addition group): 17%
Absolute weight of lungs and spleens ([2]; 0.5% addition group): Decreases
Decrease of absolute weight of kidney ([2]; 0.5% addition group): 32%
Decrease of relative weight of kidney ([2]; 0.5% addition group): 17%
Increase of absolute weight of livers ([2]; 0.5% addition group): 15%
Increase of relative weight of livers ([2]; 0.5% addition group): 40%
Relative weights of lungs and spleens ([2]; 0.5% addition group): not different from those of the control group
General conditions (appearance, properties of feces, breath and behavior) ([2]; each experimental group, except for changes in body weight): No abnormality
Histopathological change ([2]; organs of treated CDF1 mice): absence of any histopathological change
General conditions [3]: normal
Kidney weight at autopsy [3]: slight weight decrease
Pathological abnormality in the other organs and tissues ([3]; autopsy): No pathological abnormality
Amount of intraperitoneal fat relative to non-treated control mice (FIG. 2) ([4]; 0.5% in feed for two weeks): half
Body fat (subcutaneous fat and intraperitoneal fat) ([4]; 0.5% in feed for two weeks): Remarkable decreases
Increase in body weight (FIG. 1) ([4]; 0.5% in feed, compared to non-treated control mice): remarkably suppressed
Body weight gain [4, 8]: 56%
Intraperitoneal fat [4, 8]: 50%
Organ weight changes (livers, pancreases, kidneys, lungs) [5]: not observed
Cholestanol (serum), mean ± standard error ([6]; 0.5% in feed, 2 weeks, n=6): 0 mg/dL
Neutral fats (serum), mean ± standard error ([6]; 0.5% in feed, 2 weeks, n=6): 56.5 ± 8.2 mg/dL
Total cholesterol (serum), mean ± standard error ([6]; 0.5% in feed, 2 weeks, n=6): 81.3 ± 3.0 mg/dL
Serum metabolite ([6]; CDF1 mice): 0
Serum metabolite ([6]; CDF1 mice, listed as 5-sitosten-3-one): no cholestanol and other metabolites were detected
Serum cholesterol [6, 8]: 51%
Serum neutral fats [6, 8]: 15%
Amount of intraperitoneal fat relative to the control group ([7]; 0.1% addition group): 83%
Feed efficiency (body weight gain/feed intake) ([7]; 0.1% addition to feed): 0.079
Intraperitoneal fat ([7]; 0.1% addition to feed): 996.0 ± 53.5 mg
Body weight gain ([7]; 0.1% addition to feed): 4.89 g/mouse
Changes in body weight (FIG. 4) ([7]; 0.1%, 0.3% and 0.5% addition, dose-dependent): body weight decreases were observed
Amount of intraperitoneal fat relative to the control group ([7]; 0.3% addition group): 63%
Feed efficiency (body weight gain/feed intake) ([7]; 0.3% addition to feed): 0.062
Intraperitoneal fat ([7]; 0.3% addition to feed): 760.7 ± 36.9 mg
Body weight gain ([7]; 0.3% addition to feed): 3.62 g/mouse
Amount of intraperitoneal fat relative to the control group ([7]; 0.5% addition group): 42%
Decrease of feed efficiency compared to the control group ([7]; 0.5% addition group): about 80%
Feed efficiency (body weight gain/feed intake) ([7]; 0.5% addition to feed): 0.016
Intraperitoneal fat ([7]; 0.5% addition to feed): 500.6 ± 79.2 mg
Body weight gain ([7]; 0.5% addition to feed): 0.84 g/mouse

From patent US6531462B2, “Medicament for treating obesity and improving lipid metabolism” (priority 1997, dated 2003)
